Where “and” joins values, the source holds several entries; their conditions need not be identical. Identical values can stand only once.

Assay [1] deals with MPL^W515L mouse model of myelofibrosis. Description: MPL^W515L MF mouse model: histology of spleen, liver and bone marrow. The assay is classed as in vivo. The settings on record: MPL^W515L mice, oral 400 mg kg^−1 daily, 28 d. As to the method: (§1) Generation of the MPL^W515L mutant MF mouse model was similar to previously described methods. Briefly, female donor BALB/c mice were treated with 5-fluorouracil at 150 mg kg^−1 intraperitoneal for 5 d before harvesting bone marrow. Hematopoietic stem and progenitor cells were enriched with CD117 magnetic beads (Miltenyi Biotec), transduced with retrovirus containing MSCV-hMPL W515L-IRES-GFP, then 50,000 transduced HSPCs along with 300,000 total non-stem cells were injected intravenously into lethally irradiated female BALB/c recipients. Development of MF was evaluated by spleen volumes using MRI beginning ~14 d following bone marrow transplantation (BMT) as outlined below, continuing weekly until end of the study. Mice were separated into equal groups based on spleen size ~14–21 d post-BMT, then treated with vehicle (Maisine CC) or LP-182 at 400 mg kg^−1 daily by oral gavage for 14–28 d or until mice were euthanized using guidelines for end stage illness and humane endpoints. Untreated healthy control animals were used for experimental comparisons. […] Soluble protein extracts were isolated by centrifugation at 15,000 x g for 15 min at 4 °C, quantified using Micro BCA protein assay (Thermo Scientific), then mixed with reducing 6X SDS-PAGE loading dye, heated for 8 min at 95 °C, and stored at −20 °C until immuno-blot analysis. […]

For assay [2], the system named is phosphorylated ERK1/2 (pT202/pY204) in SET-2 cells. Nature of the assay: Phospho-flow cytometry of pERK1/2 in SET-2 cells. The assay is classed as cell-based, human. The settings on record: 5 μM, 16 h. As to the method:
The human megakaryoblastic cell line, SET-2 (ATCC), was maintained in RPMI 1640 supplemented with 20% FBS and incubated for 16 h at 10^6 cells mL^−1 with LP-182 or vehicle (DMSO; dimethyl sulfoxide), then washed in ice-cold PBS, and collected for flow cytometry analysis. Single-cell suspensions of mouse spleen were prepared from MPL^W515L MF mice (below) in RPMI 1640 supplemented with 5% FCS. Red blood cells were lysed by ammonium chloride-mediated red cell lysis (RCL) buffer and passed through a nylon mesh, and then cells were counted. For intracellular phospho-protein staining, SET-2 or spleen cells were fixed and then permeabilized using BD Phospho-flow fixation buffer and Perm-Buffer III (BD biosciences) according to the manufacturer’s protocol. Intracellular phospho-protein staining was performed using fluorochrome-conjugated antibodies, pAKT (pS473)-Alexa Fluor 647 (MB89-61) or pERK1/2 (pT202/pY204)-Alexa Fluor 647 (20 A). All phospho-flow antibodies were purchased from BD Biosciences. […] Flow cytometry was performed on a FACS Fortessa (Becton, Dickinson and Co.) using FACSDiVa software, and data analyzed using FlowJo software (Tree Star). […]

The subject of assay [3] is MPL^W515L mouse model of myelofibrosis. Nature of the assay: MPL^W515L MF mouse model: spleen volume by MRI (Study 1). Format: in vivo. The conditions noted are these: MPL^W515L mice; for Spleen volume to body weight ratio (mm3/g): individual animals. As to the method: Generation of the MPL^W515L mutant MF mouse model was similar to previously described methods. Briefly, female donor BALB/c mice were treated with 5-fluorouracil at 150 mg kg^−1 intraperitoneal for 5 d before harvesting bone marrow. Hematopoietic stem and progenitor cells were enriched with CD117 magnetic beads (Miltenyi Biotec), transduced with retrovirus containing MSCV-hMPL W515L-IRES-GFP, then 50,000 transduced HSPCs along with 300,000 total non-stem cells were injected intravenously into lethally irradiated female BALB/c recipients. Development of MF was evaluated by spleen volumes using MRI beginning ~14 d following bone marrow transplantation (BMT) as outlined below, continuing weekly until end of the study. Mice were separated into equal groups based on spleen size ~14–21 d post-BMT, then treated with vehicle (Maisine CC) or LP-182 at 400 mg kg^−1 daily by oral gavage for 14–28 d or until mice were euthanized using guidelines for end stage illness and humane endpoints. Untreated healthy control animals were used for experimental comparisons. Tissues were harvested and processed for flow cytometry (as described above), LCMS/MS, immuno-blotting, and histological analysis (as described in Supplementary Methods) at the defined study endpoint(s), approximately 1–2 h post-treatment with vehicle or LP-182. Briefly, blood samples were collected, transferred into K2-EDTA tubes (BD Microtainer), inverted gently to mix, then centrifuged at 2000 x g for 15 min. […] Dissection and bone marrow isolation from mouse femur and tibia was performed similar to previously described methods. Briefly, the hind limbs from mice were dissected, muscle and connective tissue removed, and bones were frozen at −80 °C. Femur and tibia were thawed separately, placed knee-end down in 18 gauge needle-pierced 0.5 mL microcentrifuge tubes nested inside 1.5 or 2 mL microcentrifuge tubes containing 1.4 mm ceramic beads (Fisher Scientific), then bone marrow was isolated by centrifugation at 10,000 x g for 1 min and processed for analysis by LCMS/MS (above; femur) or immuno-blotting (tibia). […] Soluble protein extracts were isolated by centrifugation at 15,000 x g for 15 min at 4 °C, quantified using Micro BCA protein assay (Thermo Scientific), then mixed with reducing 6X SDS-PAGE loading dye, heated for 8 min at 95 °C, and stored at −20 °C until immuno-blot analysis. Whole cell lysates were resolved by 10% SDS-PAGE, transferred to PVDF (Immobilon-P; MilliporeSigma), then membranes were blocked with 5% BSA (Equitech-Bio) in TBS containing 0.1% Tween-20 (TBST) for 1 h at room temperature with gentle orbital shaking. Membranes were incubated with primary antibodies in 5% BSA/TBST overnight at 4 °C or 5% skim milk/TBST (Lab Scientific) for 1 h at room temperature, then washed with TBST, and incubated with HRP-conjugated secondary antibodies in 5% skim milk/TBST for 1.5 h at room temperature, all with gentle platform rocking. Membranes were washed with TBST, then visualized by chemiluminescence on a BioRad ChemiDoc MP Imaging System using SuperSignal West PicoPLUS or West Femto Chemiluminescent Substrate (Thermo Scientific). Membranes were stripped using Restore PLUS Western Blot Stripping Buffer (Thermo Scientific) as per manufacturer’s instructions and re-probed with additional primary antibodies as described above. […] All antibodies were used at dilutions recommended by their specified manufacturers or optimized empirically. Additional reagents were purchased from MilliporeSigma (St. Louis, MO) unless otherwise specified. Tissues for histology were formalin-fixed, paraffin-embedded, sectioned, and stained with Hematoxylin and Eosin (H&E) to assess cellularity and tissue morphology, with Reticulin Stain Kit (Connective Tissue Stain; Abcam) to assess fibrosis, or processed for immunohistochemistry staining with GFP to assess MPL^W515L-positive cellularity. […]

Assay [4] has the same test system. Description: MPL^W515L MF mouse model: tibia bone marrow ADC by diffusion-weighted MRI. Format: in vivo. The settings on record: MPL^W515L mice, oral 400 mg kg^−1 daily. As to the method: as §1

Turning to `O=C(NOCCOCCOCCOCCC(=O)N1CCN(c2cnc3ccc(-c4cnc(Cl)c(NS(=O)(=O)c5ccc(F)cc5)c4)cc3n2)CC1)c1ccc(F)c(F)c1Nc1ccc(I)cc1F` [LP-182, N-(2-(2-(2-(3-(4-(7-(6-chloro-5-((4-fluorophenyl)sulfonamido)pyridin-3-yl)quinoxalin-2-yl)piperazin-1-yl)-3-oxopropoxy)ethoxy)ethoxy)ethoxy)-3,4-difluoro-2-((2-fluoro-4-iodophenyl)amino)benzamide], the “extramedullary hematopoiesis, number of MKs and MPL^W515L-positive MKs” value in assay [1] is given as “reduced”. Moreover, the “reticulin fibrosis in bone marrow” value in assay [1] is “diminution of reticulin fibrosis”. Further, the “decrease of downstream activation of ERK1/2” value in assay [2] is recorded as ~ 50%. Also, the “Spleen volume to body weight ratio (mm3/g)” value in assay [3] (LP-182 group, treatment length 0 d (baseline)) was 31.0875 mm3/g and 17.4312 mm3/g and 19.0791 mm3/g and 34.919 mm3/g and 29.5281 mm3/g; in assay [3] (LP-182 group, treatment length -7 d (before treatment)), 15.1103 mm3/g and 6.53 mm3/g and 9.708 mm3/g and 8.386 mm3/g and 11.4368 mm3/g; in assay [3] (oral 400 mg kg^−1 daily, treatment length 7 d), 26.2397 mm3/g and 11.9227 mm3/g and 23.2289 mm3/g and 24.8013 mm3/g and 24.121 mm3/g; in assay [3] (oral 400 mg kg^−1 daily, treatment length 14 d) it was 25.0148 mm3/g and 4.765 mm3/g and 27.3514 mm3/g and 25.4021 mm3/g and 32.6974 mm3/g; in assay [3] (oral 400 mg kg^−1 daily, treatment length 21 d), 28.0008 mm3/g and 4.203 mm3/g and 24.753 mm3/g and 31.0963 mm3/g and 27.5586 mm3/g. The “reduction of spleen volume compared to vehicle” value in assay [3] (oral 400 mg kg^−1 daily, after 14 d) is reported as ~ 35%. In addition, in assay [4], the “tibia bone marrow ADC change” value was “variable, spatially-dependent increase in ADC values”.
